Data: patent publication US7390834B2, “Cyanophenoxy carboxylic acid compounds and compositions for delivering active agents” (Emisphere Technologies, Inc., priority 2000, dated 2008)

Experiment: Oral and intracolonic delivery of heparin in rats (APTT)
Assay type: in vivo, Sprague-Dawley rats
Settings: IC, as printed: Volume Dose 50 ml/kg, Compound Dose 25 mg/kg, Heparin Dose 1 mg/kg, maximum of group means, n=5
Experimental: Oral gavage (PO) and intracolonic (IC) dosing solutions containing a delivery agent compound and heparin sodium USP in 25% aqueous propylene glycol were prepared. Either the sodium salt of the delivery agent compound was used or the free acid was converted to the sodium salt with one equivalent of sodium hydroxide. Typically, the delivery agent compound and heparin (about 166-182 IU/mg) were mixed by vortex as dry powders. This dry mixture was dissolved in 25% v/v aqueous propylene glycol, vortexed and placed in a sonicator (about 37° C.). The pH was adjusted to about 7 (6.5 to 8.5) with aqueous NaOH (2N). The dosing solution was sonicated to produce a clear solution. The final volume was adjusted to 3.0 mL. The final delivery agent compound dose, heparin dose and volume dose amounts are listed below in Table 2.
The typical dosing and sampling protocols were as follows. Male Sprague-Dawley rats weighing between 275-350 g were fasted for 24 hours and were anesthetized with ketamine hydrochloride (88 mg/kg) intramuscularly immediately prior to dosing. A dosing group of five rats was administered one of the dosing solutions. For oral gavage (PO) dosing, an 11 cm Rusch 8 French catheter was adapted to a 1 mL syringe with a pipette tip. The syringe was filled with dosing solution by drawing the solution through the catheter, which was then wiped dry. The catheter was placed down the esophagus leaving 1 cm of tubing past the rat's incisors. Solution was administered by pressing the syringe plunger. For intracolonic (IC) dosing, a 7.5 cm 8 fr Rusch catheter was adapted to a 1 ml syringe with a pipette tip. The dosing catheter was inserted into the colon through the anus until the tube was no longer visible. The dosing solution was expressed slowly into the colon.
Citrated blood samples were collected by cardiac puncture following the administration of ketamine (88 mg/kg), typically at time—0.25, 0.5, 1.0 and 1.5 hours. Heparin activity was determined by utilizing the activated partial thromboplastin time (APTT) according to the method of Henry, J. B., Clinical Diagnosis and Management by Laboratory Methods, Philadelphia, Pa., W. B. Saunders (1979). Previous studied indicated baseline values of about 20 sec. Results from the five rats in each group were averaged for each time point. The maximum is reported below in Table 2.

| SMILES | Mean Peak APTT (sec) ± SD [s] |
| --- | --- |
| N#Cc1ccccc1OCCCCCCCC(=O)O [Compound 5, 8-(2-cyanophenoxy) octanoic acid] | 80.22 ± 45.70 |

Same assay, conditions: IC, as printed: Volume Dose 200 ml/kg, Compound Dose 25 mg/kg, Heparin Dose 1 mg/kg, maximum of group means, n=5

| SMILES | Mean Peak APTT (sec) ± SD [s] |
| --- | --- |
| N#Cc1ccccc1OCCCCC(=O)O [Compound 3, 5-(2-cyanophenoxy) pentanoic acid] | 16.23 ± 1.23 |

Same assay, conditions: Oral, as printed: Volume Dose 300 ml/kg, Compound Dose 100 mg/kg, Heparin Dose 1 mg/kg, maximum of group means, n=5

| SMILES | Mean Peak APTT (sec) ± SD [s] |
| --- | --- |
| N#Cc1ccccc1OCCCCC(=O)O [Compound 3, 5-(2-cyanophenoxy) pentanoic acid] | 203.59 ± 72.97 |
| N#Cc1ccccc1OCCCCCCCC(=O)O [Compound 5, 8-(2-cyanophenoxy) octanoic acid] | 176.25 ± 175.01 |

Experiment: not given
Settings: not given

| melting point [°C] | SMILES |
| --- | --- |
| 77 to 80 | N#Cc1ccccc1OCCCCCC(=O)O (hydrate or solvate) [Compound 4, 6-(2-cyanophenoxy)hexanoic acid] |
| 127 to 128 | N#Cc1ccccc1OCCCC(=O)O [Compound 2, 4-(2-cyanophenoxy)butanoic acid] |
| 87 to 89 | N#Cc1ccccc1OCCCCC(=O)O [Compound 3, 5-(2-cyanophenoxy) pentanoic acid] |
| 83 to 85 | N#Cc1ccccc1OCCCCCCCC(=O)O [Compound 5, 8-(2-cyanophenoxy) octanoic acid] |
| 82 to 84 | N#Cc1ccccc1OCCCCCCCCCC(=O)O [Compound 6, 10-(2-cyanophenoxy)decanoic acid] |
| 87 to 90 | N#Cc1cc(Cl)ccc1OCCCCC(=O)O [Compound 7, 5-(4-chloro-2-cyanophenoxy)pentanoic acid] |
| 137 to 140 | N#Cc1ccc(OCCCCCCCC(=O)O)cc1 [Compound 8, 8-(4-cyanophenoxy)octanoic acid] |
| 199 to 203 | N#Cc1ccccc1OCc1ccc(C(=O)O)cc1 [Compound 9, 4-(2-cyanophenoxymethyl)benzoic acid] |
